Measured values as given in the NIST ThermoML archive (doi:10.1016/j.jct.2004.07.027).

Test: mn = molality of the nth substance listed, in mol/kg
Settings: 350 kPa, Liquid, Extra sensitive DSC

C1COCCOCCOCCOCCOCCO1 [1,4,7,10,13,16-hexaoxacyclooctadecane] + O
Settings	apparent molar heat capacity [J/K/mol]
278.15 K, m1 = 0.01001	748
278.15 K, m1 = 0.02001	740.4
278.15 K, m1 = 0.03002	741.5
278.15 K, m1 = 0.0401	742.3
278.15 K, m1 = 0.04995	746.2
278.15 K, m1 = 0.06015	746.9
278.15 K, m1 = 0.08002	744.3
278.15 K, m1 = 0.1224	740.8
278.15 K, m1 = 0.1472	738.5
278.15 K, m1 = 0.1935	734.51
278.15 K, m1 = 0.2925	725.83
283.15 K, m1 = 0.01001	768
283.15 K, m1 = 0.02001	764.2
283.15 K, m1 = 0.03002	764.8
283.15 K, m1 = 0.0401	765.6
283.15 K, m1 = 0.04995	769.1
283.15 K, m1 = 0.06015	769.3
283.15 K, m1 = 0.08002	767.2
283.15 K, m1 = 0.1224	764.3
283.15 K, m1 = 0.1472	762.46
283.15 K, m1 = 0.1935	759.11
283.15 K, m1 = 0.2925	751.64
288.15 K, m1 = 0.01001	788
288.15 K, m1 = 0.02001	782.4
288.15 K, m1 = 0.03002	783.2
288.15 K, m1 = 0.0401	785.4
288.15 K, m1 = 0.04995	788.8
288.15 K, m1 = 0.06015	788.7
288.15 K, m1 = 0.08002	786.6
288.15 K, m1 = 0.1224	784.29
288.15 K, m1 = 0.1472	782.67
288.15 K, m1 = 0.1935	779.7
288.15 K, m1 = 0.2925	773.51
293.15 K, m1 = 0.01001	805.9
293.15 K, m1 = 0.02001	800.2
293.15 K, m1 = 0.03002	800.8
293.15 K, m1 = 0.0401	803.3
293.15 K, m1 = 0.04995	806.1
293.15 K, m1 = 0.06015	806
293.15 K, m1 = 0.08002	804.3
293.15 K, m1 = 0.1224	802.22
293.15 K, m1 = 0.1472	800.93
293.15 K, m1 = 0.1935	798.36
293.15 K, m1 = 0.2925	793.29
298.15 K, m1 = 0.01001	820.2
298.15 K, m1 = 0.02001	817
298.15 K, m1 = 0.03002	817.3
298.15 K, m1 = 0.0401	820
298.15 K, m1 = 0.04995	822.2
298.15 K, m1 = 0.06015	822.4
298.15 K, m1 = 0.08002	820.7
298.15 K, m1 = 0.1224	819.28
298.15 K, m1 = 0.1472	818.39
298.15 K, m1 = 0.1935	816.04
298.15 K, m1 = 0.2925	811.91
303.15 K, m1 = 0.01001	836.9
303.15 K, m1 = 0.02001	832.9
303.15 K, m1 = 0.03002	833.1
303.15 K, m1 = 0.0401	836.5
303.15 K, m1 = 0.04995	838.6
303.15 K, m1 = 0.06015	838.4
303.15 K, m1 = 0.08002	836.6
303.15 K, m1 = 0.1224	835.6
303.15 K, m1 = 0.1472	835.12
303.15 K, m1 = 0.1935	832.91
303.15 K, m1 = 0.2925	829.51
308.15 K, m1 = 0.01001	852.1
308.15 K, m1 = 0.02001	847.8
308.15 K, m1 = 0.03002	848.2
308.15 K, m1 = 0.0401	852.3
308.15 K, m1 = 0.04995	853.8
308.15 K, m1 = 0.06015	853.6
308.15 K, m1 = 0.08002	852.2
308.15 K, m1 = 0.1224	851.14
308.15 K, m1 = 0.1472	850.86
308.15 K, m1 = 0.1935	849
308.15 K, m1 = 0.2925	846.24
313.15 K, m1 = 0.01001	866.4
313.15 K, m1 = 0.02001	862
313.15 K, m1 = 0.03002	862.5
313.15 K, m1 = 0.0401	867.6
313.15 K, m1 = 0.04995	868.8
313.15 K, m1 = 0.06015	868.4
313.15 K, m1 = 0.08002	867.4
313.15 K, m1 = 0.1224	866.13
313.15 K, m1 = 0.1472	866.03
313.15 K, m1 = 0.1935	864.46
313.15 K, m1 = 0.2925	862.08
318.15 K, m1 = 0.01001	881.2
318.15 K, m1 = 0.02001	875.7
318.15 K, m1 = 0.03002	875.9
318.15 K, m1 = 0.0401	881.8
318.15 K, m1 = 0.04995	882.5
318.15 K, m1 = 0.06015	882.3
318.15 K, m1 = 0.08002	881.7
318.15 K, m1 = 0.1224	880.23
318.15 K, m1 = 0.1472	880.31
318.15 K, m1 = 0.1935	878.85
318.15 K, m1 = 0.2925	876.99
323.15 K, m1 = 0.01001	893
323.15 K, m1 = 0.02001	888.8
323.15 K, m1 = 0.03002	888.4
323.15 K, m1 = 0.0401	894.9
323.15 K, m1 = 0.04995	895.6
323.15 K, m1 = 0.06015	895.5
323.15 K, m1 = 0.08002	894.7
323.15 K, m1 = 0.1224	893.76
323.15 K, m1 = 0.1472	893.83
323.15 K, m1 = 0.1935	892.3
323.15 K, m1 = 0.2925	890.8
328.15 K, m1 = 0.01001	904.7
328.15 K, m1 = 0.02001	900.1
328.15 K, m1 = 0.03002	900.3
328.15 K, m1 = 0.0401	907.2
328.15 K, m1 = 0.04995	907.7
328.15 K, m1 = 0.06015	907.3
328.15 K, m1 = 0.08002	906.8
328.15 K, m1 = 0.1224	905.99
328.15 K, m1 = 0.1472	906.11
328.15 K, m1 = 0.1935	904.68
328.15 K, m1 = 0.2925	903.37
333.15 K, m1 = 0.01001	915.3
333.15 K, m1 = 0.02001	910.7
333.15 K, m1 = 0.03002	911
333.15 K, m1 = 0.0401	918.1
333.15 K, m1 = 0.04995	918.5
333.15 K, m1 = 0.06015	918
333.15 K, m1 = 0.08002	917.5
333.15 K, m1 = 0.1224	916.74
333.15 K, m1 = 0.1472	917.09
333.15 K, m1 = 0.1935	915.79
333.15 K, m1 = 0.2925	914.65
